Measurements: patent US20260248787A9, “MEDICAMENT FOR TREATING CANCER COMPRISING OPTICALLY ACTIVE AZABICYCLO RING DERIVATIVE” (Sumitomo Pharma Co., Ltd., priority 2023, published 2026)
Where two headings read alike, the source gives them in different places.

Assay: Phase 1/2 clinical study, plasma pharmacokinetic evaluation
Type: in vivo, human
Settings: human, plasma, oral
Method: In the present test of the present compound, PK samples have been collected in up to 24 patients dosed in dose groups of 40, 80, 100, and 120 mg BID Arm A, and in dose groups of 40 and 60 mg BID Arm B (Table 6). Large preliminary PK inter-patient variability was observed.
(1) In the present study, PK samples have been collected in up to 42 patients dosed in dose groups of 40, 80, 100, 120, 140 and 200 mg BID Arm A, and in dose groups of 40, 60, 100, and 200 mg BID Arm B (Table 15).
(2) In the present study, PK samples have been collected in patients dosed in dose groups of 40, 80, 100, 120, 140, 200, and 300 mg BID Arm A, and in dose groups of 40, 60, 100, 200, and 300 mg BID Arm B (Table 16).

[1] = 100 mg, 100 mg BID Arm A, C2D1, N=1
[2] = 100 mg, 100 mg BID Arm B, Cycle 1 Day 1, N=4, mean
[3] = 100 mg, 100 mg BID Arm B, Cycle 2 Day 1, N=4, mean
[4] = 100 mg, Cycle 1 Day 1, 100 mg BID Arm A (without azole), N=2, mean
[5] = 100 mg, Cycle 1 Day 1, 100 mg BID Arm B (with azole), N=4, mean
[6] = 100 mg, Cycle 2 Day 1, 100 mg BID Arm A (without azole), N=1
[7] = 100 mg, Cycle 2 Day 1, 100 mg BID Arm B (with azole), N=4, mean
[8] = 100 mg, Table 15 cut-off, 100 mg BID Arm A, Cycle 1 Day 1, N=2, mean
[9] = 100 mg, Table 15 cut-off, 100 mg BID Arm A, Cycle 2 Day 1, N=1
[10] = 120 mg, 120 mg BID Arm A, C1D1, N=6, mean
[11] = 120 mg, 120 mg BID Arm A, C2D1, N=6, mean
[12] = 120 mg, Cycle 1 Day 1, 120 mg BID Arm A (without azole), N=6, mean
[13] = 120 mg, Cycle 2 Day 1, 120 mg BID Arm A (without azole), N=6, mean
[14] = 120 mg, Table 15 cut-off, 120 mg BID Arm A, Cycle 1 Day 1, N=6, mean
[15] = 120 mg, Table 15 cut-off, 120 mg BID Arm A, Cycle 2 Day 1, N=6, mean
[16] = 140 mg, 140 mg BID Arm A, Cycle 1 Day 1, N=6 (incl. two patients with MDS), mean
[17] = 140 mg, 140 mg BID Arm A, Cycle 2 Day 1, N=5 (incl. two patients with MDS), mean
[18] = 140 mg, Cycle 1 Day 1, 140 mg BID Arm A (without azole), N=6 (two MDS patients included, one pt excluded), mean
[19] = 140 mg, Cycle 2 Day 1, 140 mg BID Arm A (without azole), N=5 (two MDS patients included, one pt excluded), mean
[20] = 140 mg, Cycle 2 Day 1, 140 mg BID Arm B (with azole), N=1
[21] = 200 mg, 200 mg BID Arm A, Cycle 1 Day 1, N=4, mean
[22] = 200 mg, 200 mg BID Arm B, Cycle 1 Day 1, N=6, mean
[23] = 200 mg, 200 mg BID Arm B, Cycle 2 Day 1, N=2, mean
[24] = 200 mg, Cycle 1 Day 1, 200 mg BID Arm A (without azole), N=5, mean
[25] = 200 mg, Cycle 1 Day 1, 200 mg BID Arm B (with azole), N=11, mean
[26] = 200 mg, Cycle 2 Day 1, 200 mg BID Arm A (without azole), N=3, mean
[27] = 200 mg, Cycle 2 Day 1, 200 mg BID Arm B (with azole), N=5 (three patients excluded), mean
[28] = 300 mg, Cycle 1 Day 1, 300 mg BID Arm A (without azole), N=4, mean
[29] = 300 mg, Cycle 1 Day 1, 300 mg BID Arm B (with azole), N=3 (one patient pending re-assay), mean
[30] = 300 mg, Cycle 2 Day 1, 300 mg BID Arm A (without azole), N=3, mean
[31] = 300 mg, Cycle 2 Day 1, 300 mg BID Arm B (with azole), N=1 (one patient pending re-assay)

`C=C1C[C@@H]2CC[C@H]1[C@@H](C(=O)N1CCC3(CC1)CN(c1ncncc1Oc1ccc(F)cc1C(=O)N(C(C)C)C(C)C)C3)N2` [the present compound, 5-fluoro-2-[(4-{7-[(1S,3S,4R)-5-methylidene-2-azabicyclo[2.2.2]octane-3-carbonyl]-2,7-diazaspiro[3.5]nonan-2-yl}pyrimidin-5-yl)oxy]-N,N-di(propan-2-yl)benzamide] showed a Tmax (100 mg, 100 mg BID Arm A, C1D1, N=2, mean) of 3 h, a half-life (100 mg, 100 mg BID Arm A, C1D1, N=2, mean, read-out: t1/2 (converted)) of 5.64 h and an AUC(0-t) [1] of 6060 ng·h/mL. It also gave a Cmax [1] of 2840 ng/mL, a Tmax [1] of 1 h and a half-life (100 mg, 100 mg BID Arm A, C2D1, N=1, read-out: t1/2 (converted)) of 2.88 h. The AUC(0-t) [2] was 5600 ng·h/mL, the Cmax [2] was 1650 ng/mL and the AUC(0-t) [3] was 8350 ng·h/mL. For the same molecule, the Cmax [3] was 1810 ng/mL, the AUC(0-t) [4] was 4940 ng·h/mL and the Cmax [4] was 1380 ng/mL. For the same molecule, the AUC(0-t) [5] was 5600 ng·h/mL, the Cmax [5] was 1650 ng/mL and the AUC(0-t) [6] was 6060 ng·h/mL. It also gave a Cmax [6] of 2840 ng/mL, an AUC(0-t) [7] of 8350 ng·h/mL and a Cmax [7] of 1810 ng/mL. The AUC(0-t) [8] was 4940 ng·h/mL, the Cmax [8] was 1380 ng/mL and the AUC(0-t) [9] was 6060 ng·h/mL. It also gave a Cmax [9] of 2840 ng/mL, an AUC(0-t) [10] of 6250 ng·h/mL and a Cmax [10] of 2280 ng/mL. It also gave a Tmax [10] of 1.25 h, a half-life (120 mg, 120 mg BID Arm A, C1D1, N=6, mean, read-out: t1/2 (converted)) of 2.87 h and an AUC(0-t) [11] of 7860 ng·h/mL. The Cmax [11] was 1980 ng/mL, the Tmax [11] was 1.2 h and the half-life (120 mg, 120 mg BID Arm A, C2D1, N=6, mean, read-out: t1/2 (converted)) was 3.26 h. For the same molecule, the AUC(0-t) [12] was 6290 ng·h/mL, the Cmax [12] was 2320 ng/mL and the AUC(0-t) [13] was 7970 ng·h/mL. The Cmax [13] was 1980 ng/mL, the AUC(0-t) [14] was 6290 ng·h/mL and the Cmax [14] was 2320 ng/mL. It also gave an AUC(0-t) [15] of 7970 ng·h/mL, a Cmax [15] of 1980 ng/mL and an AUC(0-t) [16] of 3570 ng·h/mL. For the same molecule, the Cmax [16] was 1480 ng/mL, the AUC(0-t) [17] was 4200 ng·h/mL and the Cmax [17] was 1670 ng/mL. The AUC(0-t) [18] was 3570 ng·h/mL, the Cmax [18] was 1480 ng/mL and the AUC(0-t) (140 mg, Cycle 1 Day 1, 140 mg BID Arm B (with azole), N=2, mean) was 7000 ng·h/mL. It also gave an AUC(0-t) [19] of 4200 ng·h/mL, a Cmax [19] of 1670 ng/mL and an AUC(0-t) [20] of 5520 ng·h/mL. For the same molecule, the Cmax [20] was 1770 ng/mL, the AUC(0-t) [21] was 9650 ng·h/mL and the Cmax [21] was 3850 ng/mL. The AUC(0-t) [22] was 21200 ng·h/mL, the Cmax [22] was 6260 ng/mL and the AUC(0-t) [23] was 16700 ng·h/mL. The Cmax [23] was 4360 ng/mL, the AUC(0-t) [24] was 12100 ng·h/mL and the Cmax [24] was 3870 ng/mL. For the same molecule, the AUC(0-t) [25] was 21200 ng·h/mL, the Cmax [25] was 5700 ng/mL and the AUC(0-t) [26] was 12000 ng·h/mL. It also gave a Cmax [26] of 3850 ng/mL, an AUC(0-t) [27] of 16800 ng·h/mL and a Cmax [27] of 4070 ng/mL. The AUC(0-t) [28] was 15900 ng·h/mL, the Cmax [28] was 6070 ng/mL and the AUC(0-t) [29] was 26000 ng·h/mL. The Cmax [29] was 5970 ng/mL, the AUC(0-t) [30] was 12400 ng·h/mL and the Cmax [30] was 3060 ng/mL. It also gave an AUC(0-t) [31] of 20500 ng·h/mL, a Cmax [31] of 4210 ng/mL and a half-life (Arm A (without azole), FIGS. 4A to 4D cut-off, read-out: Mean t1/2) of 2 to 6 h. For the same molecule, the half-life (Arm A, 40-120 mg BID, read-out: Mean plasma t1/2) was 2.82 to 5.64 h, the half-life (Arm A, 40-200 mg BID (up to 42 patients), read-out: Mean apparent half-life) was 2 to 5 h and the half-life (Arm A, 40-300 mg BID, read-out: Mean apparent half-life) was 2 to 4 h. It also gave a half-life (Arm B (with azole), FIGS. 4A to 4D cut-off, read-out: Mean t1/2) of 3 to 7 h, a half-life (Arm B, 40-60 mg BID, read-out: Mean plasma t1/2) of 2.61 to 7.29 h and a half-life (Arm B, 40-200 mg BID (up to 42 patients), read-out: Mean apparent half-life) of 3 to 7 h. For the same molecule, the half-life (Arm B, 40-300 mg BID, read-out: Mean apparent half-life) was 3 to 7 h and the Tmax (post dose, Arms A and B, first cut-off) was at most 2 h.
